In the assay the test system is Staphylococcus aureus (ATCC 6538). The assay is described as follows: EPA Test antimicrobial efficacy (log kill) of films/coupons. It counts as cell-based.

The structures appear in SMILES notation.

On to `CCOP(OCC)OCC.[Cu][I]` [CuI(TEP), iodo(triethyl phosphite)copper(I)], for which the antimicrobial efficacy entry was “essentially full kill”.

(Values after US12063933B1, “Antimicrobial compositions including copper(I) salts and additives” (CORNING INCORPORATED, priority 2023, dated 2024).)
